Experimental data from ChEMBL document CHEMBL2163222 (J Med Chem, 2012).
pIC50: −log10 of the molar value. Active and inactive are the calls of the source. The calls are words filed in the database; no cut-off is given here.

Experiments:
Mus musculus = organism: Mus musculus; test: Toxicity in mouse assessed as drug tolerance; assay type: organism-based; settings: in vivo
Malme-3M = test: Growth inhibition of human MALME-3M cells at 10 uM by NCI-60 cell inhibition assay; assay type: functional; settings: read-out: GI
NCI-H23 = test: Growth inhibition of human NCI-H23 cells at 10 uM by NCI-60 cell inhibition assay; assay type: functional; settings: read-out: GI
K562 = test: Growth inhibition of human K562 cells at 10 uM by NCI-60 cell inhibition assay; assay type: functional; settings: read-out: GI
[1] = Growth inhibition of human NCI-ADR-RES cells at 10 uM by NCI-60 cell inhibition assay; assay type: functional; settings: read-out: GI
HOP-92 = test: Growth inhibition of human HOP92 cells at 10 uM by NCI-60 cell inhibition assay; assay type: functional; settings: read-out: GI
[2] = Inhibition of eIF2 protein expression in human Hs683 cells at 0.5 uM after 4 hrs by Western blotting method; assay type: functional, cell-based; settings: Hs 683
LOX IMVI = test: Growth inhibition of human LOXIMVI cells at 10 uM by NCI-60 cell inhibition assay; assay type: functional; settings: read-out: GI
MDA-MB-231 = test: Growth inhibition of human MDA-MB-231 cells at 10 uM by NCI-60 cell inhibition assay; assay type: functional; settings: read-out: GI
HL-60(TB) = test: Growth inhibition of human HL-60(TB) cells at 10 uM by NCI-60 cell inhibition assay; assay type: functional; settings: read-out: GI
[3] = Inhibition of eIF2 protein expression in human U373 cells at 0.5 uM after 4 hrs by Western blotting method; assay type: functional, cell-based; settings: U-373MG ATCC
OVCAR-3 = test: Growth inhibition of human OVCAR3 cells at 10 uM by NCI-60 cell inhibition assay; assay type: functional; settings: read-out: GI
A549 = test: Growth inhibition of human A549/ATCC cells at 10 uM by NCI-60 cell inhibition assay; assay type: functional; settings: read-out: GI
SF-295 = test: Growth inhibition of human SF295 cells at 10 uM by NCI-60 cell inhibition assay; assay type: functional; settings: read-out: GI
SK-MEL-28 = test: Growth inhibition of human SK-MEL-28 cells at 10 uM by NCI-60 cell inhibition assay; assay type: functional; settings: read-out: GI
Hs 683 = test: cells; settings: Homo sapiens, Hs 683, 72 h
OVCAR-8 = test: Growth inhibition of human OVCAR8 cells at 10 uM by NCI-60 cell inhibition assay; assay type: functional; settings: read-out: GI
SR = test: Growth inhibition of human SR cells at 10 uM by NCI-60 cell inhibition assay; assay type: functional; settings: read-out: GI
U-251 = test: Growth inhibition of human U251 cells at 10 uM by NCI-60 cell inhibition assay; assay type: functional; settings: read-out: GI
HCC 2998 = test: Growth inhibition of human HCC2998 cells at 10 uM by NCI-60 cell inhibition assay; assay type: functional; settings: read-out: GI
[4] = Growth inhibition of human […] cells at 10 uM by NCI-60 cell inhibition assay; assay type: functional; settings: read-out: GI
786-0 = test: Growth inhibition of human 786-0 cells at 10 uM by NCI-60 cell inhibition assay; assay type: functional; settings: read-out: GI
HT-29 = test: Growth inhibition of human HT-29 cells at 10 uM by NCI-60 cell inhibition assay; assay type: functional; settings: read-out: GI
BT-549 = test: Growth inhibition of human BT549 cells at 10 uM by NCI-60 cell inhibition assay; assay type: functional; settings: read-out: GI
HCT-116 = test: Growth inhibition of human HCT116 cells at 10 uM by NCI-60 cell inhibition assay; assay type: functional; settings: read-out: GI
[5] = Growth inhibition of human OE21 cells after 3 days by MTT assay; assay type: functional, cell-based; settings: OE21, 72 h
NCI-H460 = test: Growth inhibition of human NCI-H460 cells at 10 uM by NCI-60 cell inhibition assay; assay type: functional; settings: read-out: GI
PC-3 = test: Growth inhibition of human PC3 cells at 10 uM by NCI-60 cell inhibition assay; assay type: functional; settings: read-out: GI
EKVX = test: Growth inhibition of human EKVX cells at 10 uM by NCI-60 cell inhibition assay; assay type: functional; settings: read-out: GI
COLO 205 = test: Growth inhibition of human COLO205 cells at 10 uM by NCI-60 cell inhibition assay; assay type: functional; settings: read-out: GI
[6] = Solubility of compound at pH 7.4; assay type: physicochemical; settings: buffer, read-out: solubility
[7] = Stability in cell culture medium without serum assessed as compound recovery after 72 hrs; assay type: physicochemical; settings: read-out: Stability
UACC-257 = test: Growth inhibition of human UACC257 cells at 10 uM by NCI-60 cell inhibition assay; assay type: functional; settings: read-out: GI
UO-31 = test: Growth inhibition of human UO31 cells at 10 uM by NCI-60 cell inhibition assay; assay type: functional; settings: read-out: GI
SF-539 = test: Growth inhibition of human SF539 cells at 10 uM by NCI-60 cell inhibition assay; assay type: functional; settings: read-out: GI
HCT-15 = test: Growth inhibition of human HCT15 cells at 10 uM by NCI-60 cell inhibition assay; assay type: functional; settings: read-out: GI
NCI-H522 = test: Growth inhibition of human NCI-H522 cells at 10 uM by NCI-60 cell inhibition assay; assay type: functional; settings: read-out: GI
CCRF-CEM = test: Growth inhibition of human CCRF-CEM cells at 10 uM by NCI-60 cell inhibition assay; assay type: functional; settings: read-out: GI
SW-620 = test: Growth inhibition of human SW620 cells at 10 uM by NCI-60 cell inhibition assay; assay type: functional; settings: read-out: GI
SK-OV-3 = test: Growth inhibition of human SKOV3 cells at 10 uM by NCI-60 cell inhibition assay; assay type: functional; settings: read-out: GI
HOP-62 = test: Growth inhibition of human HOP62 cells at 10 uM by NCI-60 cell inhibition assay; assay type: functional; settings: read-out: GI
NCI-H226 = test: Growth inhibition of human NCI-H226 cells at 10 uM by NCI-60 cell inhibition assay; assay type: functional; settings: read-out: GI
UACC-62 = test: Growth inhibition of human UACC62 cells at 10 uM by NCI-60 cell inhibition assay; assay type: functional; settings: read-out: GI
SK-MEL-2 = test: Growth inhibition of human SK-MEL-2 cells at 10 uM by NCI-60 cell inhibition assay; assay type: functional; settings: read-out: GI
SF-268 = test: Growth inhibition of human SF268 cells at 10 uM by NCI-60 cell inhibition assay; assay type: functional; settings: read-out: GI
MDA-MB-468 = test: Growth inhibition of human MDA-MB-468 cells at 10 uM by NCI-60 cell inhibition assay; assay type: functional; settings: read-out: GI
OVCAR-5 = test: Growth inhibition of human OVCAR5 cells at 10 uM by NCI-60 cell inhibition assay; assay type: functional; settings: read-out: GI
MOLT-4 = test: Growth inhibition of human MOLT4 cells at 10 uM by NCI-60 cell inhibition assay; assay type: functional; settings: read-out: GI
SNB-75 = test: Growth inhibition of human SNB75 cells at 10 uM by NCI-60 cell inhibition assay; assay type: functional; settings: read-out: GI
T98G = test: cells; settings: Homo sapiens, 72 h
NCI-H322M = test: Growth inhibition of human NCI-H322M cells at 10 uM by NCI-60 cell inhibition assay; assay type: functional; settings: read-out: GI
CAKI-1 = test: Growth inhibition of human Caki1 cells at 10 uM by NCI-60 cell inhibition assay; assay type: functional; settings: read-out: GI

SMILES: Cc1c2c(cc[n+]1Cc1ccccc1)c1ccc(OCc3ccccc3)cc1n2Cc1ccccc1.[Br-]
- Activity (Mus musculus): Toxic
- inhibition of growth at 10 µM (Malme-3M): -73.6%
- inhibition of growth at 10 µM (NCI-H23): -12.2%
- inhibition of growth at 10 µM (K562): -25%
- inhibition of growth at 10 µM [1]: 65%
- inhibition of growth at 10 µM (HOP-92): -67.8%
- inhibition [2]: Active
- inhibition of growth at 10 µM (LOX IMVI): -93.2%
- inhibition of growth at 10 µM (MDA-MB-231): -85.1%
- inhibition of growth at 10 µM (HL-60(TB)): -54.1%
- inhibition [3]: Active
- inhibition of growth at 10 µM (OVCAR-3): -97.1%
- inhibition of growth at 10 µM (A549): 4.01%
- inhibition of growth at 10 µM (SF-295): -69.2%
- inhibition of growth at 10 µM (SK-MEL-28): -56.5%
- pIC50 (Hs 683): 6.30
- inhibition of growth at 10 µM (OVCAR-8): -70.9%
- inhibition of growth at 10 µM (SR): -52.5%
- inhibition of growth at 10 µM (U-251): -80.2%
- inhibition of growth at 10 µM (HCC 2998): -81.8%
- inhibition of growth at 10 µM [4]: -21.6%
- inhibition of growth at 10 µM (786-0): -87.4%
- inhibition of growth at 10 µM (HT-29): -48.6%
- inhibition of growth at 10 µM (BT-549): -90.4%
- inhibition of growth at 10 µM (HCT-116): -95.6%
- pIC50 [5]: 5.89
- inhibition of growth at 10 µM (NCI-H460): -87.5%
- inhibition of growth at 10 µM (PC-3): -44.8%
- inhibition of growth at 10 µM (EKVX): -28.8%
- inhibition of growth at 10 µM (COLO 205): -82.3%
- solubility [6]: 461 µM
- remaining at 72 h [7]: > 95%
- inhibition of growth at 10 µM (UACC-257): -0.65%
- inhibition of growth at 10 µM (UO-31): -18.2%
- inhibition of growth at 10 µM (SF-539): -5.52%
- inhibition of growth at 10 µM (HCT-15): 39.2%
- inhibition of growth at 10 µM (NCI-H522): -47.1%
- inhibition of growth at 10 µM (CCRF-CEM): -16.2%
- inhibition of growth at 10 µM (SW-620): -88.1%
- inhibition of growth at 10 µM (SK-OV-3): 7.67%
- inhibition of growth at 10 µM (HOP-62): -70.9%
- inhibition of growth at 10 µM (NCI-H226): -12%
- inhibition of growth at 10 µM (UACC-62): -87.1%
- inhibition of growth at 10 µM (SK-MEL-2): -36%
- inhibition of growth at 10 µM (SF-268): -90.4%
- inhibition of growth at 10 µM (MDA-MB-468): -42.3%
- inhibition of growth at 10 µM (OVCAR-5): 13.5%
- inhibition of growth at 10 µM (MOLT-4): -51%
- inhibition of growth at 10 µM (SNB-75): -18%
- pIC50 (T98G): 6.32
- inhibition of growth at 10 µM (NCI-H322M): -26.9%
- inhibition of growth at 10 µM (CAKI-1): -5.76%
